Results published in PubChem BioAssay AID1963832 (Molecular Pharmacology Branch, DTP, NCI, 2024).

Tested on: 885724-159-R-J1-PDC complex spheroid viability
Assay: Anticancer human tumor 885724-159-R-J1-PDC patient-derived pancreatic adenocarcinoma cell line growth inhibition [POLQ]
Conditions: for IC50: curve of first compound; for viability, T/C: stronger effect = lower value
Description: Multicellular complex tumor spheroid response to Polymerase (POL) inhibitors (novobiocin, ART-558, RP6685) in combination with a variety of drugs and investigational agents in selected tumor cell lines
The POL inhibitors (novobiocin, ART-558, and RP6685) were evaluated both individually and in combination with standard of care and investigational anticancer small molecules within a complex spheroid model of solid tumors. . Complex spheroids include a stromal component modeled by human endothelial cells (HUVEC) and fibroblasts modeled by human mesenchymal stem cells (MSCs). The concentration ranges selected for each drug and investigational agent were based upon clinically achievable concentrations if the clinical Cmax of the agent was known.
Compounds. The drugs and investigational agents: novobiocin (NSC847541), ART-558 (NSC835418), RP-6685 (NSC848927), peposertib (NSC802822), ceralasertib (NSC780249), elimusertib (NSC800525), camonsertib (NSC841442), AZD-1390 (NSC803789), olaparib (NSC753686), talazoparib (NSC767125), rucaparib (NSC756644), sotorasib (NSC818433), MRTX-1133 (NSC836407), SN-38 (NSC673596), topotecan (NSC609699), epotoside (NSC141540), doxorubicin (NSC123127), gemcitabine (NSC613327), 5-fluorouracil (NSC19893), paclitaxel (NSC125973), vemurafenib (NSC761431), MSA-2 (NSC828583), SN-011 (NSC837082), adavosertib (NSC754352), prexasertib (NSC758257), carboplatin (NSC241240) and oxaliplatin (NSC266046), were obtained from the National Cancer Institute (NCI) Developmental Therapeutics Program Chemical Repository (21). The FDA-approved anticancer drug set is available from the Developmental Therapeutics Program at https://dtp.cancer.gov/organization/dscb/obtaining/. […] The stock solutions were prepared in dimethyl sulfoxide (DMSO, Sigma-Aldrich, St. Louis, MO, cat. D2650), except for the platinum compounds which were prepared in saline (Quality Biological, Gaithersburg, MD, cat. 114-055-101), at 800-fold the tested concentration and stored at -70 degrees C prior to their use. All drugs and investigational agents were tested over a range starting from a high concentration at or near the clinical Cmax and decreasing in half-log increments. If the clinical Cmax for an agent had not been determined, the highest concentration tested was 10 microM, except for SN-38, which was tested at a high concentration of 1 microM.
Cell Culture. All cells were maintained in an incubator at 37 degrees C and 5% CO2 with 95% humidity. The PDC lines were cultured according to standard operating procedures established by the NCI PDMR (https://pdmr.cancer.gov). Table 3 of the manuscript, lists the cell lines along with the number of the three cell types plated to form the mct-spheroids and media for tumor cell growth. After thawing, all PDC lines, except 997537-175-T-J1-PDC and 415267-285-R-J2-PDC, were cultured in Matrigel-coated flasks prepared with a working solution of 1X Ham's F-12 nutrient mix, without supplementation (Thermo Fisher Scientific, cat. 11765054), 100 U/mL penicillin-streptomycin (Thermo Fisher Scientific, cat. 15140122), and 2.5% Matrigel (Corning Inc., Corning, NY, cat. 354248) for the first three passages. The two PDC lines 997537-175-T-J1-PDC and 415267-285-R-J2-PDC were cultured on uncoated flasks. The 857933-349-R-J2-PDC line was cultured in 6C/Colon 1B media containing advanced DMEM/F-12 (Thermo Fisher Scientific, cat. 12634028), 10 mM HEPES (Thermo Fisher Scientific, cat. 15630080), 1X GlutaMAX supplement (Thermo Fisher Scientific, cat. 35050061), 0.1 mg/mL primocin (InvivoGen, San Diego, CA, cat. ant-pm-2), 10% defined fetal bovine serum, heat inactivated (HyClone Laboratories Inc., Logan, UT, cat. SH30070.03HI), 50% L-WRN conditioned media (ATCC, cat. CRL-3276), 1.25 mM N-Acetyl-L-cysteine (Sigma-Aldrich, cat. A9165), 10 mM nicotinamide (Sigma-Aldrich, cat. N0636), 1X B-27 supplement (Thermo Fisher Scientific, cat. 17504044), 1X N-2 supplement (Thermo Fisher Scientific, cat. […]

[1] = second compound 0.0316 µM, first compound 0.0316 µM
[2] = second compound 0.0316 µM, first compound 0.1 µM
[3] = second compound 0.0316 µM, first compound 0.316 µM
[4] = second compound 0.0316 µM, first compound 1 µM
[5] = second compound 0.0316 µM, first compound 3.16 µM
[6] = second compound 0.0316 µM, first compound 10 µM
[7] = second compound 0.1 µM, first compound 0.0316 µM
[8] = second compound 0.1 µM, first compound 0.1 µM
[9] = second compound 0.1 µM, first compound 0.316 µM
[10] = second compound 0.1 µM, first compound 1 µM
[11] = second compound 0.1 µM, first compound 3.16 µM
[12] = second compound 0.1 µM, first compound 10 µM
[13] = second compound 0.316 µM, first compound 0.0316 µM
[14] = second compound 0.316 µM, first compound 0.1 µM
[15] = second compound 0.316 µM, first compound 0.316 µM
[16] = second compound 0.316 µM, first compound 1 µM
[17] = second compound 0.316 µM, first compound 3.16 µM
[18] = second compound 0.316 µM, first compound 10 µM
[19] = second compound 1 µM, first compound 0.0316 µM
[20] = second compound 1 µM, first compound 0.1 µM
[21] = second compound 1 µM, first compound 0.316 µM
[22] = second compound 1 µM, first compound 1 µM
[23] = second compound 1 µM, first compound 3.16 µM
[24] = second compound 1 µM, first compound 10 µM
[25] = second compound 3.16 µM, first compound 0.0316 µM
[26] = second compound 3.16 µM, first compound 0.1 µM
[27] = second compound 3.16 µM, first compound 0.316 µM
[28] = second compound 3.16 µM, first compound 1 µM
[29] = second compound 3.16 µM, first compound 3.16 µM
[30] = second compound 3.16 µM, first compound 10 µM
[31] = second compound 10 µM, first compound 0.0316 µM
[32] = second compound 10 µM, first compound 0.1 µM
[33] = second compound 10 µM, first compound 0.316 µM
[34] = second compound 10 µM, first compound 1 µM
[35] = second compound 10 µM, first compound 3.16 µM
[36] = second compound 10 µM, first compound 10 µM
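Also: spheroids exposed to compounds for 7 days.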

Work on CC(C)n1c(=O)n(C)c2cnc3cc(F)c(-c4ccc(OCCCN5CCCCC5)nc4)cc3c21 + Nc1ccc(C#CCN(C(=O)Cc2ncc(C(F)(F)F)cc2C(F)(F)F)c2ccc(F)cc2)nn1 yielded an IC50 (second compound 0.0316 µM) greater than 10000 nM, an IC50 (second compound 0.1 µM) greater than 10000 nM and an IC50 (second compound 0.316 µM) greater than 10000 nM. For the same molecule, the IC50 (second compound 1 µM) was greater than 10000 nM, the IC50 (second compound 3.16 µM) was greater than 10000 nM and the IC50 (second compound 10 µM) was greater than 10000 nM. For the same molecule, the viability, T/C [1] was 103%, the viability, T/C [2] was 103% and the viability, T/C [3] was 101%. The viability, T/C [4] was 98.2%, the viability, T/C [5] was 85.3% and the viability, T/C [6] was 81.5%. The viability, T/C [7] was 104%, the viability, T/C [8] was 94.9% and the viability, T/C [9] was 98%. The viability, T/C [10] was 98.9%, the viability, T/C [11] was 98.9% and the viability, T/C [12] was 93.7%. The viability, T/C [13] was 104%, the viability, T/C [14] was 102% and the viability, T/C [15] was 96.3%. For the same molecule, the viability, T/C [16] was 94.5%, the viability, T/C [17] was 94% and the viability, T/C [18] was 87.7%. The viability, T/C [19] was 111%, the viability, T/C [20] was 104% and the viability, T/C [21] was 96.8%. For the same molecule, the viability, T/C [22] was 97.8%, the viability, T/C [23] was 97% and the viability, T/C [24] was 84.9%. For the same molecule, the viability, T/C [25] was 98.4%, the viability, T/C [26] was 104% and the viability, T/C [27] was 98.1%. For the same molecule, the viability, T/C [28] was 101%, the viability, T/C [29] was 90% and the viability, T/C [30] was 92.1%. It also gave a viability, T/C [31] of 106%, a viability, T/C [32] of 97.4% and a viability, T/C [33] of 108%. For the same molecule, the viability, T/C [34] was 103%, the viability, T/C [35] was 90.7% and the viability, T/C [36] was 73.7%.

Molecule CC1COCCN1c1cc(-c2ccnn2C)c2ccnc(-c3ccn[nH]3)c2n1 (centres undefined) + Nc1ccc(C#CCN(C(=O)Cc2ncc(C(F)(F)F)cc2C(F)(F)F)c2ccc(F)cc2)nn1 has an IC50 (second compound 0.0316 µM) of 298 nM, an IC50 (second compound 0.1 µM) of 275 nM and an IC50 (second compound 0.316 µM) of 267 nM. The IC50 (second compound 1 µM) was 178 nM, the IC50 (second compound 3.16 µM) was 275 nM and the IC50 (second compound 10 µM) was 458 nM. For the same molecule, the viability, T/C [1] was 95.7%, the viability, T/C [2] was 60.6% and the viability, T/C [3] was 51%. It also gave a viability, T/C [4] of 43.9%, a viability, T/C [5] of 47.7% and a viability, T/C [6] of 44.4%. For the same molecule, the viability, T/C [7] was 108%, the viability, T/C [8] was 60.8% and the viability, T/C [9] was 49.6%. The viability, T/C [10] was 48.1%, the viability, T/C [11] was 42.7% and the viability, T/C [12] was 39.5%. The viability, T/C [13] was 96.1%, the viability, T/C [14] was 58.4% and the viability, T/C [15] was 49.7%. It also gave a viability, T/C [16] of 47.5%, a viability, T/C [17] of 46.4% and a viability, T/C [18] of 39.1%. It also gave a viability, T/C [19] of 90%, a viability, T/C [20] of 52.3% and a viability, T/C [21] of 49%. It also gave a viability, T/C [22] of 47.5%, a viability, T/C [23] of 49.9% and a viability, T/C [24] of 38.4%. For the same molecule, the viability, T/C [25] was 95.9%, the viability, T/C [26] was 61.5% and the viability, T/C [27] was 48.4%. For the same molecule, the viability, T/C [28] was 45.2%, the viability, T/C [29] was 43.4% and the viability, T/C [30] was 43.8%. The viability, T/C [31] was 106%, the viability, T/C [32] was 64% and the viability, T/C [33] was 52.4%. For the same molecule, the viability, T/C [34] was 49.3%, the viability, T/C [35] was 46.6% and the viability, T/C [36] was 42.5%.
